Laboratory results taken from patent US20050154032A1, “Methods of using zonisamide as an adjunctive therapy for partial seizures” (Eisai Co., Ltd, priority 2004, published 2005).

Experiments:
T-type Ca^2+ currents = settings: in vitro; cited from earlier work
[1] = tested on: dopaminergic and serotonergic neurotransmission; settings: in vivo microdialysis; cited from earlier work
rat hippocampal slices = settings: 10-30 μg/mL; cited from earlier work
sodium channels = settings: in vitro; cited from earlier work
[2] = tested on: GABA/benzodiazepine receptor ionophore complex; settings: in vitro; cited from earlier work
[3] = human, in vivo
Text: The pharmacovigilance data that were collected, reviewed and analyzed provided the following information in respect of the incidence of hyperammonemia. A total of 4 cases fulfilled the criteria of potential hyperammonemia cases. These cases were reviewed in detail for evaluation of possible safety signals. Two US cases were reported as either high ammonia levels or increased ammonia. Two Japanese cases were reported as hyperammonemia.
Of these, two (2) cases (both ZON1000262 and ZON1000346) had strong confounding factors and seem to-be unrelated to zonisamide, but the possibility of zonisamide involvement cannot be completely excluded. The two cases of hyperammonemia originated from Japan and both involved adult patients. Both cases were serious and described as life-threatening. […]
Estimates of exposure, based upon retail and mail order prescriptions, indicate that the number of unique patients taking zonisamide capsules in the U.S. is about 37,276 (total prescriptions per year/average number of prescriptions per patient per year less a calculated percentage decrease based on estimated annual dropouts) in the time between approval in 2000 and December 2002. […] Similarly, the incidences of NMS estimated herein are unlikely to be higher than calculated. Based on the exposure data and number of hyperammonemia cases, the incidence of hyperammonemia is calculated to be about […].

carbonic anhydrase = settings: fraction of acetazolamide inhibition; cited from earlier work
[4] = upon reaching a stable dose or following dosage adjustment; cited from earlier work
[5] = tested on: cultured mouse spinal cord neurons; settings: 10-30 μg/mL; cited from earlier work
hepatic enzyme = settings: cited from earlier work
[6] = cited from earlier work; for hyperammonemia as adverse event: literature

Row | SMILES | effect on voltage-dependent, transient inward currents (T-type Ca2+ currents) (T-type Ca^2+ currents) | dopaminergic and serotonergic neurotransmission [1] | neuronal or glial uptake of [3H]-GABA (rat hippocampal slices) | effect on sodium channels (sodium channels) | binding to GABA/benzodiazepine receptor ionophore complex [2] | cases fulfilling the criteria of potential hyperammonemia cases [3] [cases] | incidence of hyperammonemia [3] | carbonic anhydrase inhibition compared to acetazolamide (carbonic anhydrase) | time required to achieve steady-state levels [4] | postsynaptic GABA or glutamate responses [5] | synaptically-driven electrical activity [5] | hepatic enzyme induction (hepatic enzyme) | hyperammonemia as adverse event [6] | cases of hyperammonemia associated with the drug ([6]; since 1979 (O'Neil et al. 2002))
1 | NS(=O)(=O)Cc1noc2ccccc12 [zonisamide, 1,2-benzisoxazole-3-methanesulfonamide] | reduces | facilitates | without affecting | blocks sodium channels | binds to the GABA/benzodiazepine receptor ionophore complex in an allosteric fashion | 4 | about 1:1,222,453 | 1/50 | up to two weeks | without affecting | suppresses | not known to be a hepatic enzyme inducer |  | 
2 | CCCC(CCC)C(=O)O [valproate] |  |  |  |  |  |  |  |  |  |  |  |  | known to cause hyperammonemia | more than 30 cases
3 | NC(=O)N1c2ccccc2C=Cc2ccccc21 [carbamazepine] |  |  |  |  |  |  |  |  |  |  |  |  | known to cause hyperammonemia | 
